Data on four molecules can be found in publication PMC3914206.

Holding throughout (format): binding
What all share (details): Compound Concentration 10 µM

Assay [1] deals with T1, panel of 442 kinases (Homo sapiens, UniProt P36888, D835Y).
T1 construct: purchased KINOMEscan
T1 sequence (P36888 27-993 D835Y): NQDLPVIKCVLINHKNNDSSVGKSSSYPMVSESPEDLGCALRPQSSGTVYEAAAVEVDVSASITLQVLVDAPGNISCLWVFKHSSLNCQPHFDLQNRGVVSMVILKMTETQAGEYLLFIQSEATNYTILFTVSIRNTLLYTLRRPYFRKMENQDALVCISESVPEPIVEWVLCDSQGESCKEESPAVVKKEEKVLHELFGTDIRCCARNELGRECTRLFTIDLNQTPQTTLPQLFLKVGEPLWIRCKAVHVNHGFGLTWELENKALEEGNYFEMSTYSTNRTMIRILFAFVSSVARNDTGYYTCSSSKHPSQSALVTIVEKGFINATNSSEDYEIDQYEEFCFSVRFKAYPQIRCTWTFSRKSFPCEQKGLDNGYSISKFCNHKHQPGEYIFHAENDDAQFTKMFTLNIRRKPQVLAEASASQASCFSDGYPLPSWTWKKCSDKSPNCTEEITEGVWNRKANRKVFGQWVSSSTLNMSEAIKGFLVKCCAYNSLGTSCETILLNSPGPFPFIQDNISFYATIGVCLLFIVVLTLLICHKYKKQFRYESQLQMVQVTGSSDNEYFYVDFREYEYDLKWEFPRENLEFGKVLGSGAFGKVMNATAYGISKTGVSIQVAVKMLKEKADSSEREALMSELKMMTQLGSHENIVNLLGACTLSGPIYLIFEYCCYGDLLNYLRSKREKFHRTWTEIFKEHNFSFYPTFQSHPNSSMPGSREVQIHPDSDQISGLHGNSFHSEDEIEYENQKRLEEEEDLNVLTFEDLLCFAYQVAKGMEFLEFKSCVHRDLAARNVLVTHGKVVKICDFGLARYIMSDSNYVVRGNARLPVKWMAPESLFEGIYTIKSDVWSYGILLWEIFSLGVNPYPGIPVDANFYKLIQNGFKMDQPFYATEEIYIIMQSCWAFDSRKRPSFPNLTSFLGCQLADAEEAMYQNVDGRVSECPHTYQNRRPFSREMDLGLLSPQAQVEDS
The text has this:
(§1) We assessed the selectivity of members of this scaffold using the KINOMEscan methodology across a near comprehensive panel of 442 kinases [[18,27]].

Assay [2] deals with T2, panel of 442 kinases (Homo sapiens, UniProt Q86V86).
T2 construct: purchased KINOMEscan
Excerpt: as §1

The target in assay [3] is T3, panel of 442 kinases (Homo sapiens, UniProt Q8TDX7).
T3 construct: purchased KINOMEscan
Excerpt: as §1

Molecules are shown by their SMILES.

T3 sequence (Q8TDX7 whole entry): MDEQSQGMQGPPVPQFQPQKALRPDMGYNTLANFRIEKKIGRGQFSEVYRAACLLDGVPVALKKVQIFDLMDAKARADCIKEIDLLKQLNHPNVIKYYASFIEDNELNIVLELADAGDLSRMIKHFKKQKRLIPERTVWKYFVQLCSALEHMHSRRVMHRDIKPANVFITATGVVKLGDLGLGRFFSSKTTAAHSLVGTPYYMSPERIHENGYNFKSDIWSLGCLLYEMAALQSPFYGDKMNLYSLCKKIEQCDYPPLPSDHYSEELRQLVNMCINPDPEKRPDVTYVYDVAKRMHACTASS

With `COc1cc(C(=O)N2CCC(N3CCN(C)CC3)CC2)ccc1Nc1ncc2c(n1)N(C)c1ccccc1C(=O)N2C` [15 (LRRK2-IN-1)], the “KINOMEscan: FLT3(D835Y)” value on panel of 442 kinases [1] is 100. Also, at panel of 442 kinases [2], the “KINOMEscan: PIM3” value turned out to be 88. The “KINOMEscan: NEK7” value at panel of 442 kinases [3] turned out to be 100.
As to `COc1cc(C(=O)N2CCC(N3CCN(C)CC3)CC2)ccc1Nc1ncc2c(n1)N1CCc3cccc(c31)C(=O)N2C` [Compound 24], the “KINOMEscan: PIM3” value on panel of 442 kinases [2] amounted to 67.
For `COc1cc(C(=O)N2CCC(N3CCN(C)CC3)CC2)ccc1Nc1ncc2c(n1)N(C1CCCC1)c1ccccc1C(=O)N2C` [Compound 25, 11-cyclopentyl-2-((2-methoxy-4-(4-(4-methylpiperazin-1-yl)piperidine-1-carbonyl)phenyl)amino)-5-methyl-5H-benzo[e]pyrimido[5,4-b][1,4]diazepin-6(11H)-one], the “KINOMEscan: FLT3(D835Y)” value at panel of 442 kinases [1] was determined as 100. Besides, the “KINOMEscan: PIM3” value on panel of 442 kinases [2] is 78. In addition, the “KINOMEscan: NEK7” value on panel of 442 kinases [3] amounted to 100.
In the case of `CCOc1cc(C(=O)N2CCC(N3CCN(C)CC3)CC2)ccc1Nc1ncc2c(n1)N(C1CCCC1)c1ccccc1C(=O)N2C` [Compound 26], on panel of 442 kinases [1], the “KINOMEscan: FLT3(D835Y)” value is 100. Moreover, at panel of 442 kinases [2], the “KINOMEscan: PIM3” value worked out at 100. In addition, the “KINOMEscan: NEK7” value on panel of 442 kinases [3] is 100.
